Experimental data published in patent US20210275518A1, “METHODS OF USING REBASTINIB IN THE TREATMENT OF DISORDERS” (Deciphera Pharmaceuticals, LLC, priority 2020, published 2021).

Tests used:
[1] = tested on: endometrial adenocarcinoma; assay: Phase 1b/2 rebastinib + paclitaxel, Part 2 Cohort 4 (RECIST v1.1); type: in vivo, human
Excerpt: Upon determination of the RP2D, Part 2 is initiated to dose up to 165 evaluable patients using the RP2D across five indication-specific cohorts. A Simon's two-stage design is applied to Part 2 to further evaluate the safety, tolerability, and preliminary efficacy of rebastinib in combination with paclitaxel in triple-negative breast (Cohort 1), inflammatory breast (Cohort 2), ovarian (Cohort 3), endometrial adenocarcinoma (Cohort 4), and gynecologic carcinosarcoma (Cohort 5) cancers. Each cohort initially enrolls up to 18 evaluable patients in the first stage. Patients must receive at least 1 dose of the combination and have 1 post-baseline assessment (including assessment of clinical progression) or be discontinued prior to the postbaseline disease assessment due to an AE at least possibly related to rebastinib, to be considered evaluable. Tumor response is assessed according to Response Evaluation Criteria in Solid Tumors (RECIST) Version 1.1. The decision to enroll patients beyond the first stage is based on response assessments obtained after the first post-dose response assessment of the last patient enrolled in the first stage of a cohort. […] If ≤4 responses are seen in a cohort, the cohort will be terminated. If >4 responses are seen prior to the last evaluable patient in the first stage, expanding the cohort may be triggered earlier. Enrollment in each cohort will pause between the first and second stage of the Simon two-stage for evaluation of response. Patients will receive study treatment until they develop progressive disease, experience unacceptable toxicity, or withdraw consent.
21 patients were enrolled and completed at least Cycle 1, Day 1 (C1D1); 18 of which had post baseline measurements. 16 of the patients treated with rebastinib were at a starting dose of 100 mg BID and 80 mg/m^2 weekly paclitaxel, of which the doses of 11 were reduced to 50 mg BID and 80 mg/m^2 weekly paclitaxel, and 5 patients were at a starting dose of 50 mg BID and 80 mg/m^2 weekly paclitaxel. Of the 21 patients who completed at least Cycle 1, Day 1, the median age was 66 years, all received at least 1 prior line of paclitaxel/carboplatin, and 20 (95%) received at least 2 prior anti-cancer therapies. Of the 21 patients who completed at least Cycle 1, Day 1, the median duration of treatment was 16 weeks. Of the 21 patients, 18 were determined to be efficacy evaluable patients (mITT).
At a third time point, 38 patients with endometrial cancer were enrolled in this portion of the study as a safety population. 16 of the patients treated with rebastinib were at a starting dose of 100 mg BID and 80 mg/m^2 weekly paclitaxel, of which the doses of 11 were reduced to 50 mg BID and 80 mg/m^2 weekly paclitaxel, and 22 patients were at a starting dose of 50 mg BID and 80 mg/m^2 weekly paclitaxel. 33 of the 38 patients met the met the modified intention-to-treat (mITT) criteria.

[2] = Pharmacokinetics of rebastinib given with paclitaxel (Part 1); type: in vivo, human; conditions: 50 mg BID and 100 mg BID in combination with paclitaxel
Excerpt: This is an open-label Phase 1b/2 multicenter study in patients with advanced or metastatic solid tumors where paclitaxel may be considered appropriate treatment. Rebastinib will be administered in combination with paclitaxel in repeated 28-day cycles to primarily assess the safety, tolerability and preliminary efficacy of the combination. Adverse events (AEs) will be assessed, and laboratory values, vital sign measurements, electrocardiograms (ECGs), ophthalmologic examinations, physical examinations and Eastern Cooperative Oncology Group (ECOG) Performance Status (PS) will be obtained to evaluate the safety and tolerability of rebastinib when administered in combination with paclitaxel. Pharmacokinetic (PK) and pharmacodynamic (PD) samples will be collected at pre-specified time points.

[3] = Cohort 4, time point 1, of the eight with stable disease at Cycle 3, Day 1, Cycle 5, Day 1
[4] = Cohort 4, time point 1, rebastinib + paclitaxel, Cycle 3, Day 1
[5] = Cohort 4, time point 2, 18 evaluable patients (mITT)
[6] = Cohort 4, time point 3, of 3 patients who had received Lenvatinib/pembrolizumab
[7] = Cohort 4, time point 4, 33 evaluable patients
[8] = Table 2, Cohort 4, time point 3, mITT N = 33, patients (%)
[9] = Table 2, Cohort 4, time point 3, n 11

## CNC(=O)c1cc(Oc2ccc(NC(=O)Nc3cc(C(C)(C)C)nn3-c3ccc4ncccc4c3)c(F)c2)ccn1 [rebastinib]
[1]; Cohort 4, time point 1, of the eight with stable disease at Cycle 3, Day 1
  Patients with stable disease at Cycle 5, Day 1 and partial response at Cycle 8, Day 1: one
[1]; [3]
  Patients with partial response: one
  Patients with stable disease: four
[1]; Cohort 4, time point 1, of the four with partial response at Cycle 3, Day 1, Cycle 5, Day 1
  Patients with partial response: two
[1]; Cohort 4, time point 1, of the four with partial response at Cycle 3, Day 1, both Cycle 5, Day 1 and Cycle 8, Day 1
  Patients with partial response: two
[1]; [4]
  Patients with partial response: four
  Patients with stable disease: Eight
[1]; [5]
  CBR at 8 weeks: 72%
  ORR: 39%
  Stable disease (SD) determinations: 6
[1]; Cohort 4, time point 2, 18 evaluable patients (mITT), rebastinib 100 or 50 mg BID with weekly paclitaxel 80 mg/m^2
  Partial response (PR) determinations: 7
[1]; Cohort 4, time point 3, 33 patients mITT
  Clinical benefit rate at 16 weeks: 53%
[1]; Cohort 4, time point 3, 33 patients mITT, rebastinib 100 or 50 mg BID with weekly paclitaxel 80 mg/m^2
  Objective response rate (ORR): 33%
[1]; Cohort 4, time point 3, FIG. 7, subgroups by age, number of prior regimens, number of prior paclitaxel regimens, histology
  ORR across subgroups: consistent
[1]; [6]
  Patients with partial response: 2
  Patients with stable disease: 1
[1]; Cohort 4, time point 4
  Outcome of serious adverse events related (or possibly) to rebastinib: resolved after dose interruption
[1]; [7]
  Clinical benefit at 8 weeks: 70%
  Clinical benefit at 16 weeks: 54%
  Confirmed PRs: 8
  PRs: 11
[1]; Cohort 4, time point 4, 33 evaluable patients, rebastinib 100 or 50 mg BID with weekly paclitaxel 80 mg/m^2
  ORR: 33%
[1]; Cohort 4, time point 4, 90% CI: 2.7, NE, median follow up 4.4 months
  KM median duration of response: 7.4 months
[1]; Cohort 4, time point 4, 90% CI: 3.7, 9.4
  Median PFS: 6.2 months
[1]; [8]
  Best Overall Response: Confirmed Partial Response: 8 (24.2%)
  Best Overall Response: Not Evaluable: discontinued prior to radiological assessment: 5 (15.2%)
  Best Overall Response: Partial Response: 11 (33.3%)
  Best Overall Response: Progressive Disease: 6 (18.2%)
  Best Overall Response: Single Response Awaiting Confirmation: 1 (3.0%)
  Best Overall Response: Stable Disease: 11 (33.3%)
  Best Overall Response: Unconfirmed Single Response: 2 (6.1%)
[1]; [9]
  Duration of Response, Events (%): 3 (27.3)
  Time to Response, Mean (SD): 3.3 (1.7)
[1]; Table 2, Cohort 4, time point 3, n 11, NE: Not evaluated
  Duration of Response, Kaplan-Meier Median (80% CI): 7.4 (7.4, NE)
[2]
  Exposure to rebastinib: dose proportional
